The values that follow come from ChEMBL document CHEMBL5137021, “Organotropic dendrons with high potency as HIV-1, HIV-2 and EV-A71 cell entry inhibitors” (Eur J Med Chem, 2022).

Series [1] in a line: Ex vivo biodistribution in ip dosed C57BL/6 mouse intestine measured after 24 hrs by fluorescence analysis. The format is ADME, organism-based.
Series [2] in a line: Ex vivo biodistribution in ip dosed C57BL/6 mouse lung measured after 72 hrs by fluorescence analysis. The format is ADME, organism-based.
Series [3] can be described thus: Ex vivo biodistribution in ip dosed C57BL/6 mouse intestine measured after 2 hrs by fluorescence analysis. The class given is ADME, organism-based.
A short description of series [4]: Ex vivo biodistribution in iv dosed C57BL/6 mouse intestine measured after 2 hrs by fluorescence analysis. The class given is ADME, organism-based.
Series [5] can be described thus: Ex vivo biodistribution in ip dosed C57BL/6 mouse lung measured after 24 hrs by fluorescence analysis. The class given is ADME, organism-based.
Series [6] in a line: Ex vivo biodistribution in ip dosed C57BL/6 mouse intestine measured after 72 hrs by fluorescence analysis. The format is ADME, organism-based.
The subject of series [7] is Enterovirus A71. As to the kind of experiment: Antiviral activity against Enterovirus A71 BrCr harboring VP1_S184T_P246S mutant infected in RD cells assessed as protection against virus induced cytopatheic effect measured after 5 days by MTS assay. The class given is functional, organism-based.
For another series, the system named is rhinovirus B14. The series can be described thus: Antiviral activity against Rhinovirus 14 infected in HeLa cells assessed as protection against virus induced cytopatheic effect measured after 5 days by MTS assay. Conditions: Rhinovirus B, 14, HeLa, 120 h; call rule not given here. The format is functional, organism-based, Enterovirus.
For series [8], the system named is Enterovirus A71. As to the kind of experiment: Antiviral activity against EV-A71 genotype B5 TW/70902/08 infected in RD cells assessed as protection against virus induced cytopatheic effect measured after 5 days by MTS assay. The format is functional, organism-based. Conditions: Enterovirus A, genotype B5 TW/70902/08, RD, 120 h.
Series [9] is described as follows: Selectivity index, ratio of CC50 for human RD cells to EC50 for antiviral activity against EV-A71. The class given is toxicity. Conditions: read-out: Ratio CC50/EC50.
The nature of series [10]: Cytotoxicity against human RD cells assessed as cell viability measured after 5 days by MTS assay. The class given is toxicity, cell-based. Conditions: time 5 day. For orientation: Formazan colour is commonly taken as a measure of viable cells.
Series [11] relates to Enterovirus A71. The series can be described thus: Antiviral activity against EV-A71 genotype C4 TW/1956/05 infected in RD cells assessed as protection against virus induced cytopatheic effect measured after 5 days by MTS assay. The class given is functional, organism-based. Conditions: Enterovirus A, genotype C4 TW/1956/05, RD, 120 h.
Series [12] has as its system Human immunodeficiency virus 1. As to the kind of experiment: Antiviral activity against HIV1 NL4-3 infected in human MT4 cells assessed as protection against virus induced cytopatheic effect measured after 5 days by MTS assay. The format is functional, organism-based. Conditions: Human immunodeficiency virus 1, NL4-3, MT4, 120 h.
Series [13] relates to Enterovirus A71. The series can be described thus: Antiviral activity against EV-A71 genotype A BrCr infected in RD cells assessed as protection against virus induced cytopatheic effect measured after 5 days by MTS assay. The format is functional, organism-based. Conditions: 120 h.
Series [14] has as its system Enterovirus A71. The series can be described thus: Antiviral activity against EV-A71 genotype C2 H08300 461#812 infected in RD cells assessed as protection against virus induced cytopatheic effect measured after 5 days by MTS assay. Conditions: Enterovirus A, genotype C2 H08300 461#812, RD, 120 h. The format is functional, organism-based.
Another series has as its system enterovirus D68. The series can be described thus: Antiviral activity against Enterovirus D68 CU70 infected in HeLa cells assessed as protection against virus induced cytopatheic effect measured after 5 days by MTS assay. The format is functional, organism-based. Conditions: Enterovirus D, 120 h.
For series [15], the system named is Enterovirus A71. The series can be described thus: Antiviral activity against Enterovirus A71 BrCr harboring VP1_P246S mutant infected in RD cells assessed as protection against virus induced cytopatheic effect measured after 5 days by MTS assay. The class given is functional, organism-based.
A further series deals with rhinovirus A2. The series can be described thus: Antiviral activity against Rhinovirus 2 infected in HeLa cells assessed as protection against virus induced cytopatheic effect measured after 5 days by MTS assay. The format is functional, organism-based, Enterovirus. Conditions: Rhinovirus A, 2, HeLa, 120 h.
Series [16] relates to Enterovirus A71. The series can be described thus: Antiviral activity against EV-A71 genotype B2 11316 infected in RD cells assessed as protection against virus induced cytopatheic effect measured after 5 days by MTS assay. The format is functional, organism-based. Conditions: Enterovirus A, genotype B2 11316, RD, 120 h.
In series [17] the test system is Enterovirus A71. As to the kind of experiment: Antiviral activity against EV-A71 infected in RD cells assessed as protection against virus induced cytopatheic effect measured after 5 days by MTS assay. The class given is functional, organism-based. Conditions: Enterovirus A, 120 h.
Another series deals with Coxsackievirus B3. The series can be described thus: Antiviral activity against Coxsackievirus B3 Nancy strain infected in Vero cells assessed as protection against virus induced cytopatheic effect measured after 5 days by MTS assay. Conditions: Enterovirus B, 120 h. The format is functional, organism-based.
A short description of series [18]: Cytotoxicity against human MT4 cells assessed as cell viability measured after 5 days by MTS assay. Conditions: time 5 day. The format is toxicity, cell-based.
The nature of series [19]: Selectivity index, ratio of CC50 for human MT4 cells to EC50 for antiviral activity against HIV-1 NL4.3. The class given is toxicity. Conditions: read-out: Ratio CC50/EC50.
Series [20] relates to Enterovirus A71. The series can be described thus: Antiviral activity against Enterovirus A71 BrCr harboring VP1_S184T mutant infected in RD cells assessed as protection against virus induced cytopatheic effect measured after 5 days by MTS assay. The class given is functional, organism-based.
Series [21] concerns Human immunodeficiency virus 2. The series can be described thus: Antiviral activity against HIV2 ROD infected in human MT4 cells assessed as protection against virus induced cytopatheic effect measured after 5 days by MTS assay. The format is functional, organism-based. Conditions: Human immunodeficiency virus 2, ROD, MT4, 120 h.
The subject of series [22] is Enterovirus A71. The series can be described thus: Antiviral activity against Enterovirus A71 BrCr infected in RD cells assessed as protection against virus induced cytopatheic effect measured after 5 days by MTS assay. Conditions: Enterovirus A, 120 h. The class given is functional, organism-based.

For `CC1(CCCCCCC(=O)NC(CCC(=O)NC(Cc2c(-c3cc(C(=O)O)cc(C(=O)O)c3)[nH]c3ccccc23)C(=O)O)(CCC(=O)NC(Cc2c(-c3cc(C(=O)O)cc(C(=O)O)c3)[nH]c3ccccc23)C(=O)O)CCC(=O)NC(Cc2c(-c3cc(C(=O)O)cc(C(=O)O)c3)[nH]c3ccccc23)C(=O)O)C(/C=C/C=C/C=C2/N(CCCS(=O)(=O)O)c3ccc(S(=O)(=O)O)cc3C2(C)C)=[N+](CCCS(=O)(=O)O)c2ccc(S(=O)(=O)O)cc21.[Na+].[Na+].[Na+].[Na+].[Na+].[Na+].[Na+].[Na+].[Na+].[Na+].[Na+].[Na+]` (stereo unspecified), the Drug uptake entry in series [1], in series [2], in [3], in [4], in series [5] and in [6] was “Active” in each case.
For `O=C(CCC(CCC(=O)NC(Cc1c(-c2cc(C(=O)O)cc(C(=O)O)c2)[nH]c2ccccc12)C(=O)O)(CCC(=O)NC(Cc1c(-c2cc(C(=O)O)cc(C(=O)O)c2)[nH]c2ccccc12)C(=O)O)NC(=O)CCCCCCNC(=O)Nc1cc(C(=O)O)cc(C(=O)O)c1)NC(Cc1c(-c2cc(C(=O)O)cc(C(=O)O)c2)[nH]c2ccccc12)C(=O)O` (stereo unspecified), the EC50 was 300 nM in the series on Enterovirus A71 [7]; greater than 50000 nM with rhinovirus B14; 2 nM in the series on Enterovirus A71 [8]; 6 nM with Enterovirus A71 [11]; 1090 nM in series [12]; 42 nM with Enterovirus A71 [13]. The EC50 in the series with Enterovirus A71 [14] is 91 nM; in the series on enterovirus D68 it was greater than 50000 nM; with Enterovirus A71 [15], 60 nM; with rhinovirus A2, greater than 50000 nM; with Enterovirus A71 [16] it was 75 nM; in the series on Enterovirus A71 [17] it was 50 nM. Further, the concentration giving a half-maximal response (EC50) in the series on Coxsackievirus B3 is greater than 50000 nM; in the series with Enterovirus A71 [20] it was 300 nM; in series [21], 50 nM; in the series on Enterovirus A71 [22], 40 nM. Further, the selectivity ratio in series [9] was greater than 2000; in series [19] it was greater than 92. For the same molecule, the CC50 at 120 h in [10] and in [18] was greater than 100000 nM throughout.

One may read the EC50 as the concentration that produces a half-maximal response. In general, CC50 refers to the concentration that lowers cell viability or growth by half.
